In patent publication US10392367B2, “IRE1 small molecule inhibitors” (QUENTIS THERAPEUTICS, INC., priority 2017, dated 2019):

Legend:
[1] = target: T1, IRE1a (Homo sapiens, UniProt O75460); experiment: IRE1a Endoribonuclease Nanoluciferase Assay (XBP1 luciferase reporter in 293 T cells); format: cell-based; conditions: 293 T cells transfected with XBP1 luciferase reporter plasmid
Protocol: Compounds disclosed herein were assessed for disruption of IRE1 signaling using a IRE1a Endoribonuclease Nanoluciferase Assay. Briefly, 2.5×10^6 293 T cells were seeded in a 10 cm^2 tissue culture plate. About 24 hours later, the cells were transfected with Effectene. In a 15 mL Tube, the following was added: 2 μg XBP1 luciferase reporter plasmid (PGK-Luc2-P2A-XBP1u-Nanoluciferase-PEST); 300 μl EC buffer; and 16 μl Enhancer, followed by incubation at room temp for 5 minutes. Next, 60 μl Effectene (Qiagen 301427) was added, followed by incubation at room temperature for 10 minutes. 2.6 mL cDMEM media was added. Old media was aspirated from the cells, followed by addition of 7 mL fresh media. Full transfection mixture was added dropwise to cells. Cells were incubated for 6 hours, followed by tripsinization, centrifugation and resuspension in 11 mL media. 100 uL of cells were plated per a well in a 96 well plate. A day later, stressors of choice+/− inhibitors were added. To harvest, media was aspirated from cells completely, then 50 uL 1× passive lysis buffer (Promega: E1941) was added per well and put on shaker (300 rpm) for 30 minutes at room temperature. Cells were centrifuged, and 15 uL sample per well was added to a new, opaque white 384 well plate (Corning 3570). 15 uL OneGlo (nanoluciferase kit, Promega N1630) was added. Plates were spun down, placed on shaker (300 rpm) for 10 minutes. Plates were read on luminometer, 1000 ms integration time per well. 15 uL Stop and Glo (nanoluciferase kit) was added. Plates were spun down, placed on shaker (300 rpm) for 10 minutes. Plates were read on luminometer, 1000 ms second integration time per well. Recordings are provided below in Table 4.

[2] = target: T1, IRE1a; experiment: In vitro FRET assay (XBP1 RNA probe cleavage by IRE1a); format: biochemical; set-up: purchased SignalChem; conditions: SignalChem IRE1a protein 2 nM
Protocol: In vitro FRET assay was performed to evaluate the ability of select compounds to inhibit IRE1, the results of which are summarized in Table 3. To perform the in vitro FRET assay, 1× complete assay buffer (CAB; […] DTT, 50 mM sodium citrate pH 7.15, 1 mM magnesium acetate, 0.02% tween 20) was used to dilute SignalChem IRE1a protein to a final concentration of 2 nM. Selected compounds were serially diluted with DMSO in a non-binding black 384-well plate for a total of 15 ul in each well. 2 ul of the serially diluted compound or DMSO control were then added to new wells containing 98 ul of 1×CAB, for a total volume of 100 ul, 10 ul of which were then transferred to wells of a new plate. 5 ul of the diluted IRE1a was then added to each well. 5 ul of a […] XBP1 RNA probe was then added to each well. Fluorescence was then read over 30 minutes in kinetic mode (485/515 nm).
Two RNA probes were used, XBP1 wildtype (SEQ ID NO: 2) which is able to be spliced by active IRE1a or XBP1 mutant (SEQ ID NO: 3) which is unable to be spliced. Each probe contained a 5′ 6-FAM modification and a 3′ IOWA Black FQ modification.

T1 sequence (O75460 19-977): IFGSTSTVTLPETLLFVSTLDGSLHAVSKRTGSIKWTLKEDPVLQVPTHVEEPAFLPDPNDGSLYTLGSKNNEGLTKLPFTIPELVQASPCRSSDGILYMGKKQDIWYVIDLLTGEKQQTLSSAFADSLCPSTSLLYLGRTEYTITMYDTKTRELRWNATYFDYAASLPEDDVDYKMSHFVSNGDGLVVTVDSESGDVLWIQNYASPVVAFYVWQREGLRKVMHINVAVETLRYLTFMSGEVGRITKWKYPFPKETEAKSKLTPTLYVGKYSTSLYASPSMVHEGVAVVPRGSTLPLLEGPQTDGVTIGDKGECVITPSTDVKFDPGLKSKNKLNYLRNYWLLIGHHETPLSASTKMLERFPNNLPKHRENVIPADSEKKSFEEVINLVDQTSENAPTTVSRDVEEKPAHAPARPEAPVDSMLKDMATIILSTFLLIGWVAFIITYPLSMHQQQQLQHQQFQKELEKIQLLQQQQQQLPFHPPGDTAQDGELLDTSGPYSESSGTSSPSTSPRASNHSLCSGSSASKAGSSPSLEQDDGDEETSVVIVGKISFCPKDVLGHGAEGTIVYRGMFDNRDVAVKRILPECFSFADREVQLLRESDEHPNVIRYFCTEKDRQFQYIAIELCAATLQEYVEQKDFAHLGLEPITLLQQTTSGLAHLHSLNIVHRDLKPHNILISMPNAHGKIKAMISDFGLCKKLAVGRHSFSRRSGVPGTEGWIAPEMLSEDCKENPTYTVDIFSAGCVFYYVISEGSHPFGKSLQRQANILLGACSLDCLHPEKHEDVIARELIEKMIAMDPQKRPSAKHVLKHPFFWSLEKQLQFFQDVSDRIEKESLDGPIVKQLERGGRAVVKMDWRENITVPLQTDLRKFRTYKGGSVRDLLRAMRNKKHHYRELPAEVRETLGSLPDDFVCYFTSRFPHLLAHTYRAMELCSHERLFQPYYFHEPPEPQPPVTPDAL

Cn1nc(NC(=O)Cc2cccc(C(F)(F)F)c2)cc1-c1ccc2nc(N[C@H]3CC[C@H](N)CC3)ncc2c1 [Compound 1, N-(5-(2-(((1r,4r)-4-aminocyclohexyl)amino)quinazolin-6-yl)-1-methyl-1H-pyrazol-3-yl)-2-(3-(trifluoromethyl)phenyl)acetamide]
EC50 [1]: > 100 nM | IC50 [2]: 50 to 100 nM

CCc1cc(-c2cc(NC(=O)Cc3cccc(C(F)(F)F)c3)nn2C)cc2cnc(N[C@H]3CC[C@H](N)CC3)nc12 [Compound 2, N-(5-(2-(((1r,4r)-4-aminocyclohexyl)amino)-8-ethylquinazolin-6-yl)-1-methyl-1H-pyrazol-3-yl)-2-(3-(trifluoromethyl)phenyl)acetamide]
EC50 [1]: 50 to 100 nM | IC50 [2]: ≤ 5 nM

CCc1cc(-c2cc(NC(=O)Nc3ccc(OC4CCN(C)CC4)c(C(F)(F)F)c3)nn2C)cc2cnc(N[C@H]3CC[C@H](N)CC3)nc12 [Compound 4; Formic Acid, 1-(5-(2-(((1r,4r)-4-aminocyclohexyl)amino)-8-ethylquinazolin-6-yl)-1-methyl-1H-pyrazol-3-yl)-3-(4-((1-methylpiperidin-4-yl)oxy)-3-(trifluoromethyl)phenyl)urea]
EC50 [1]: ≤ 5 nM | IC50 [2]: ≤ 5 nM

CCc1cc(-c2cc(NC(=O)Cc3ccc(C(F)(F)F)cc3)nn2C)cc2cnc(N[C@H]3CC[C@H](N)CC3)nc12 [Compound 6, N-(5-(2-(((1r,4r)-4-aminocyclohexyl)amino)-8-ethylquinazolin-6-yl)-1-methyl-1H-pyrazol-3-yl)-2-(4-(trifluoromethyl)phenyl)acetamide]
EC50 [1]: > 100 nM | IC50 [2]: ≤ 5 nM

CCc1cc(-c2cc(NC(=O)Cc3ccc(C(F)(F)F)c(F)c3)nn2C)cc2cnc(N[C@H]3CC[C@H](N)CC3)nc12 [Compound 7, N-(5-(2-(((1r,4r)-4-aminocyclohexyl)amino)-8-ethylquinazolin-6-yl)-1-methyl-1H-pyrazol-3-yl)-2-(3-fluoro-4-(trifluoromethyl)phenyl)acetamide]
EC50 [1]: > 100 nM | IC50 [2]: ≤ 5 nM

CCc1cc(-c2cc(NC(=O)Cc3cccc(OC(F)(F)F)c3)nn2C)cc2cnc(N[C@H]3CC[C@H](N)CC3)nc12 [Compound 11, N-(5-(2-(((1r,4r)-4-aminocyclohexyl)amino)-8-ethylquinazolin-6-yl)-1-methyl-1H-pyrazol-3-yl)-2-(3-(trifluoromethoxy)phenyl)acetamide]
EC50 [1]: > 100 nM | IC50 [2]: 5 to 50 nM

CCc1cc(-c2cc(NC(=O)Cc3cc(C(F)(F)F)ccc3C(F)(F)F)nn2C)cc2cnc(N[C@H]3CC[C@H](N)CC3)nc12 [Compound 12, N-(5-(2-(((1r,4r)-4-aminocyclohexyl)amino)-8-ethylquinazolin-6-yl)-1-methyl-1H-pyrazol-3-yl)-2-(2,5-bis(trifluoromethyl)phenyl)acetamide]
Mean EC50 [1]: A-B | IC50 [2]: ≤ 5 nM

CCc1cc(-c2cc(NC(=O)Cc3cc(F)ccc3C(F)(F)F)nn2C)cc2cnc(N[C@H]3CC[C@H](N)CC3)nc12 [Compound 13, N-(5-(2-(((1r,4r)-4-aminocyclohexyl)amino)-8-ethylquinazolin-6-yl)-1-methyl-1H-pyrazol-3-yl)-2-(5-fluoro-2-(trifluoromethyl)phenyl)acetamide]
EC50 [1]: > 100 nM | IC50 [2]: 5 to 50 nM

CCc1cc(-c2cc(NC(=O)C(CC)c3ccccc3)nn2C)cc2cnc(N[C@H]3CC[C@H](N)CC3)nc12 (some centres unmarked) [Compound 16, N-(5-(2-(((1r,4r)-4-aminocyclohexyl)amino)-8-ethylquinazolin-6-yl)-1-methyl-1H-pyrazol-3-yl)-2-phenylbutanamide]
EC50 [1]: > 100 nM | IC50 [2]: ≤ 5 nM

CCc1cc(-c2cc(NC(=O)Cc3ccc(Cl)c(C(F)(F)F)c3)nn2C)cc2cnc(N[C@H]3CC[C@H](N)CC3)nc12 [Compound 18, N-(5-(2-(((1r,4r)-4-aminocyclohexyl)amino)-8-ethylquinazolin-6-yl)-1-methyl-1H-pyrazol-3-yl)-2-(4-chloro-3-(trifluoromethyl)phenyl)acetamide]
EC50 [1]: > 100 nM | IC50 [2]: 5 to 50 nM

CCc1cc(-c2cc(NC(=O)Nc3cccc(C(F)(F)F)c3)nn2C)cc2cnc(N[C@H]3CC[C@H](N)CC3)nc12 [Compound 19, 1-(5-(2-(((1r,4r)-4-aminocyclohexyl)amino)-8-ethylquinazolin-6-yl)-1-methyl-1H-pyrazol-3-yl)-3-(3-(trifluoromethyl)phenyl)urea]
EC50 [1]: 5 to 50 nM | IC50 [2]: ≤ 5 nM

CCc1cc(-c2cc(NC(=O)C(C)c3cccc(C(F)(F)F)c3)nn2C)cc2cnc(N[C@H]3CC[C@H](N)CC3)nc12 (some centres unmarked) [Compound 25, N-(5-(2-(((1r,4r)-4-aminocyclohexyl)amino)-8-ethylquinazolin-6-yl)-1-methyl-1H-pyrazol-3-yl)-2-(3-(trifluoromethyl)phenyl)propanamide]
EC50 [1]: > 100 nM | IC50 [2]: 5 to 50 nM

CCc1cc(-c2cc(NC(=O)Cc3cc(C)cc(F)c3)nn2C)cc2cnc(N[C@H]3CC[C@H](N)CC3)nc12 [Compound 27, N-(5-(2-(((1r,4r)-4-aminocyclohexyl)amino)-8-ethylquinazolin-6-yl)-1-methyl-1H-pyrazol-3-yl)-2-(3-fluoro-5-methylphenyl)acetamide]
EC50 [1]: > 100 nM | IC50 [2]: 5 to 50 nM

CCc1cc(-c2cc(NC(=O)Nc3ccc(OCCCNC)c(C(F)(F)F)c3)nn2C)cc2cnc(N[C@H]3CC[C@H](N)CC3)nc12 [Compound 29, 1-(5-(2-(((1r,4r)-4-aminocyclohexyl)amino)-8-ethylquinazolin-6-yl)-1-methyl-1H-pyrazol-3-yl)-3-(4-(3-(methylamino)propoxy)-3-(trifluoromethyl)phenyl)urea]
EC50 [1]: ≤ 5 nM | IC50 [2]: ≤ 5 nM

CCc1cc(-c2cc(NC(=O)Cc3ccc(OCCCNC)c(C(F)(F)F)c3)nn2C)cc2cnc(N[C@H]3CC[C@H](N)CC3)nc12 [Compound 30, N-(5-(2-(((1r,4r)-4-aminocyclohexyl)amino)-8-ethylquinazolin-6-yl)-1-methyl-1H-pyrazol-3-yl)-2-(4-(3-(methylamino)propoxy)-3-(trifluoromethyl)phenyl)acetamide]
EC50 [1]: 5 to 50 nM | IC50 [2]: ≤ 5 nM

Cn1nc(NC(=O)Cc2cccc(C(F)(F)F)c2)cc1-c1cc2cnc(N[C@H]3CC[C@H](N)CC3)nc2c2ccccc12 [Compound 31, N-(5-(2-(((1r,4r)-4-aminocyclohexyl)amino)benzo[h]quinazolin-6-yl)-1-methyl-1H-pyrazol-3-yl)-2-(3-(trifluoromethyl)phenyl)acetamide]
EC50 [1]: > 100 nM | IC50 [2]: > 100 nM

CCc1cc(-c2cc(NC(=O)Cc3ccc(OC4CCN(C)CC4)c(C(F)(F)F)c3)nn2C)cc2cnc(N[C@H]3CC[C@H](N)CC3)nc12 [Compound 32, N-(5-(2-(((1r,4r)-4-aminocyclohexyl)amino)-8-ethylquinazolin-6-yl)-1-methyl-1H-pyrazol-3-yl)-2-(4-((1-methylpiperidin-4-yl)oxy)-3-(trifluoromethyl)phenyl)acetamide]
EC50 [1]: ≤ 5 nM | IC50 [2]: ≤ 5 nM

CCc1cc(-c2cc(NC(=O)Cc3cc(C(F)(F)F)ccc3C)nn2C)cc2cnc(N[C@H]3CC[C@H](N)CC3)nc12 [Compound 34, N-(5-(2-(((1r,4r)-4-aminocyclohexyl)amino)-8-ethylquinazolin-6-yl)-1-methyl-1H-pyrazol-3-yl)-2-(2-methyl-5-(trifluoromethyl)phenyl)acetamide]
EC50 [1]: 5 to 50 nM | IC50 [2]: ≤ 5 nM

CCc1cc(-c2cc(NC(=O)Cc3cc(C(F)(F)F)ccc3C(F)(F)F)nn2C)cc2cnc(N[C@H]3CC[C@](C)(N)CC3)nc12 [Compound 49, N-(5-(2-(((1r,4r)-4-amino-4-methylcyclohexyl)amino)-8-ethylquinazolin-6-yl)-1-methyl-1H-pyrazol-3-yl)-2-(2,5-bis(trifluoromethyl)phenyl)acetamide]
IC50 [2]: 50 to 100 nM

CCc1cc(-c2cc(NC(=O)Cc3cc(C(F)(F)F)ccc3C(F)(F)F)nn2C)cc2cnc(N[C@H]3CC[C@@](C)(N)CC3)nc12 [Compound 50, N-(5-(2-(((1s,4s)-4-amino-4-methylcyclohexyl)amino)-8-ethylquinazolin-6-yl)-1-methyl-1H-pyrazol-3-yl)-2-(2,5-bis(trifluoromethyl)phenyl)acetamide]
IC50 [2]: 50 to 100 nM
